Patent US20260217743A1, “ETHER OF PHOSPHATIDYLCHOLINE AND PHOSPHATIDYLETHANOLAMINE, THEIR LYSO-FORMS AND MIXTURE THEREOF FOR USE IN THE TREATMENT OF A DISEASE OR DISORDER CAUSED BY A DEFICIENCY IN PLASMALOGENS” (Baker Heart and Diabetes Institute, priority 2023, published 2026)

Experiments:
[1] = tested on: RAW 264.7 cells; assay: LPC(O)/LPE(O) supplementation with different SN1 compositions in RAW 264.7 cells, PE(P) level and composition; format: cell-based, mouse; conditions: 20 μM, 24 hours
Experimental: A mouse macrophage cell line, RAW 264.7 was used for this study. The cells were cultured at 37° C. with 5% CO2 in Roswell Park Memorial Institute (RPMI) 1640 medium containing L-glutamine with 1% sodium pyruvate (Gibco, USA) and 10% fetal bovine serum (Gibco, USA). The cells were passaged every week and the media replenished every two to three days until passage 30, at which point these cells were discarded. The cells were seeded in a 12-well plate at a concentration of 300,000 cells/ml of media and allowed to grow until they reached 80% confluency.
To assess the incorporation of plasmalogen precursors into cellular plasmalogens, cells were supplemented with compounds with different SN1 compositions, i.e., varying proportions of O-16:0, O-18:0, and O-18:1 of LPC(O) or LPE(O) at a concentration of 20 μM (Table 14). The plasmalogen precursors, LPC(O), and LPE(O), were dissolved in chloroform:methanol (2:1), evaporated under a stream of nitrogen gas at 40° C., and then reconstituted in RPMI medium with 2% bovine serum albumin (Sigma-Aldrich, USA). The control treatment for the cells consisted of RPMI with 2% bovine serum albumin. Once prepared, the media containing the precursors were vortexed and sonicated in an ultrasonic water bath (Soniclean, Adelaide, SA, Australia) for 15 minutes.
Lipids were extracted from cells using the butanol-methanol method, following established protocols. […] These vials were then frozen at −80° C. until they were ready for mass spectrometry analysis.
A targeted lipidomic approach using LC-MS/MS, following a previously published protocol (Huynh, et al., “High-Throughput Plasma Lipidomics: Detailed Mapping of the Associations with Cardiometabolic Risk Factors,” Cell Chem. Biol., 2019 Jan. 17; 26(1):71-84.e4, doi: 10.1016/j.chembiol.2018.10.008), was utilised for the samples from this study. […] Multiple lipid species belonging to different lipid classes including phosphatidylcholine (PC), alkylphosphatidylcholine [PC(O)], alkenylphosphatidylcholine [PC(P)], phosphatidylethanolamine (PE), alkylphosphatidylethanolamine [PE(O)], alkenylphosphatidylethanolamine [PE(P)] or PE plasmalogen, lysophosphatidylcholine (LPC), lysoalkylphosphatidylcholine [LPC(O)], lysoalkenylphosphatidylcholine [LPC(P)], lysophosphatidylethanolamine (LPE), lysoalkylphosphatidylethanolamine [LPE(O)], lysoalkenylphosphatidylethanolamine [LPE(P)], triacylglycerol (TG) and alkyldiacylglycerol [TG(O)] were measured. The lipid species measured in this study are listed in Supplementary Table 1, which is included at the end of this Example. […]
For data processing, vendor software Qualitative Analysis B.07.00 and QQQ Quantitative Analysis B.10.0.0 were utilized. Relative quantification of lipid species was determined by comparing them to the corresponding internal standards. […]

[2] = tested on: 3T3-L1 cells; assay: LPC(O)/LPE(O) supplementation with different SN1 compositions in 3T3-L1 cells, PE(P) level and composition; format: cell-based, mouse; conditions: 20 μM, 24 hours
Excerpt: The method employed in this study was the same as described in example 5, with the exception of the cell line and culture medium used. For this study, a mouse fibroblast/pre-adipocyte cell line, 3T3-L1, was utilised and cultured in Dulbecco's Modified Eagle Medium (DMEM) (Gibco, USA), supplemented with 1% sodium pyruvate (Gibco, USA) and 10% newborn calf serum (Gibco, New Zealand).

Question: Which “efficacy in elevating the endogenous PE(P) level” value [1] does the source give for `CCCCCCCCCCCCCCCCOC[C@@H](O)COP(=O)([O-])OCC[N+](C)(C)C` [LPC(O-16:0) 100%] here?
Answer: Its value is “greater efficacy”.

Question: `CCCCCCCCCCCCCCCCOC[C@@H](O)COP(=O)(O)OCCN` [LPE(O-16:0) 100%] was tested. Which “efficacy in elevating the endogenous PE(P) level” value [1] did it give?
Answer: The value was “equal effectiveness”.

Question: How did the “efficacy in elevating the endogenous PE(P) level” value [1] turn out when `CCCCCCCCCCCCCCCCCCOC[C@@H](O)COP(=O)(O)OCCN` [LPE(O-18:0) 100%] was run?
Answer: Its value is “equal effectiveness”.

Question: With `CCCCCCCC/C=C\CCCCCCCCOC[C@@H](O)COP(=O)(O)OCCN` [LPE(O-18:1) 100%] as the molecule, how does the “efficacy in elevating the endogenous PE(P) level” value [1] read?
Answer: Its value is “comparatively less effective”.

Question: What about the “cellular PE(P) levels” value [2] of the same molecule?
Answer: Its value is “appeared to reduce these levels”.
